Reference: ChEMBL document CHEMBL1201862, “PubChem BioAssay data set” (2004)
The source made the active and inactive calls.

Columns and labels:
[1] = biological target: T1, G-protein coupled receptor 35 (Homo sapiens, UniProt Q9HC97); assay: SAR analysis of Agonists of the GPR35 Receptor using an Image-Based Assay - Set 4. [Related pubchem assays (depositor defined):AID2013, AID2026]; assay type: functional
Cannabinoid receptor 1 [2] = biological target: T2, Cannabinoid receptor 1 (Homo sapiens, UniProt P21554); assay: SAR analysis of agonists of the Cannabinoid Receptor 1 using an Image-Based Assay - Set 4. [Related pubchem assays (depositor defined):AID2013, AID2026]; assay type: functional
T2 sequence (P21554 whole entry): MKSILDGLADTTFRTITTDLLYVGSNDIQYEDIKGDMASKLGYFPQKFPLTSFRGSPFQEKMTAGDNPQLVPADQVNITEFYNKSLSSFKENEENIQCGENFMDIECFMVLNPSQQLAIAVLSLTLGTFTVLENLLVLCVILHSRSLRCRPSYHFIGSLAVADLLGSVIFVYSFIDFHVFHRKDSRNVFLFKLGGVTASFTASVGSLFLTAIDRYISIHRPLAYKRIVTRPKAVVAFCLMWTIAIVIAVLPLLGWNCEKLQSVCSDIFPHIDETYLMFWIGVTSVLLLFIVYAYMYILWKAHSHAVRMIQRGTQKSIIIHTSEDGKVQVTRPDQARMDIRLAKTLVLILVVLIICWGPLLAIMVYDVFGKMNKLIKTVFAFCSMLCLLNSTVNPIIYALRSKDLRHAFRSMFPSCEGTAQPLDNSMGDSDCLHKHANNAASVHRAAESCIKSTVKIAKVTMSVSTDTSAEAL

[3] = biological target: T1, G-protein coupled receptor 35; assay: SAR analysis of Antagonists of the GPR35 Receptor using an Image-Based Assay - Set 6. [Related pubchem assays (depositor defined):AID2013, AID2026]; assay type: functional
Cannabinoid receptor 1 [4] = biological target: T2, Cannabinoid receptor 1; assay: SAR analysis of antagonists of the Cannabinoid Receptor 1 using an Image-Based Assay - Set 4. [Related pubchem assays (depositor defined):AID2013, AID2026]; assay type: functional
[5] = biological target: G-protein coupled receptor 55 (Homo sapiens, UniProt Q9Y2T6); assay: SAR Analysis of Selective Antagonists of GPR55 using an Image-Based Assay - Set 4. [Related pubchem assays (depositor defined):AID2013, AID2026]; assay type: functional;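 also: antagonism of response to 5 µM lysophosphatidylinositol agonist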
Chain of G-protein coupled receptor 55 (Q9Y2T6 whole entry): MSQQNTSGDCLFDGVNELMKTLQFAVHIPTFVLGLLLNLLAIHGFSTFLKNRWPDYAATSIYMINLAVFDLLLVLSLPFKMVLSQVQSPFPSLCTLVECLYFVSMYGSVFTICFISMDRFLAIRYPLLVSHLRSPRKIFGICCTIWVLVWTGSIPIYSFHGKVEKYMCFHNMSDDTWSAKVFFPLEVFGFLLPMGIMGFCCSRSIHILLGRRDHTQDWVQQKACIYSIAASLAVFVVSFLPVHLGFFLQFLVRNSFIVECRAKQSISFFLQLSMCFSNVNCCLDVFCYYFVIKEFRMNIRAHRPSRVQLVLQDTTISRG

Cannabinoid receptor 2 [6] = biological target: T3, Cannabinoid receptor 2 (Homo sapiens, UniProt P34972); assay: SAR analysis of antagonists of the Cannabinoid Receptor 2 using an Image-Based Assay - Set 3. [Related pubchem assays (depositor defined):AID2013, AID2026]; assay type: functional
T3 sequence (P34972 whole entry): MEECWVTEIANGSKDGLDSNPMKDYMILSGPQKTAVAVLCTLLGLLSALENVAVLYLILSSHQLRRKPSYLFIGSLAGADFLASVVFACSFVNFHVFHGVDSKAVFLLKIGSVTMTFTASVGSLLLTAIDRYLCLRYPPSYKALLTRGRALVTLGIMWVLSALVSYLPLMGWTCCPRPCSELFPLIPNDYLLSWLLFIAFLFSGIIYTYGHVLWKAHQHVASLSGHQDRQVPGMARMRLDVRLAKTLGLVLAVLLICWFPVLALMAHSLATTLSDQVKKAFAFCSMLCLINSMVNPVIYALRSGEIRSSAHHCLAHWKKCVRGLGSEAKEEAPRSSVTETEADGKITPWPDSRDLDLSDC

Cannabinoid receptor 2 [7] = biological target: T3, Cannabinoid receptor 2; assay: SAR analysis of agonists of the Cannabinoid Receptor 2 using an Image-Based Assay - Set 3. [Related pubchem assays (depositor defined):AID2013, AID2026]; assay type: functional
[8] = Luminescence Cell-Based Dose Response HTS to Identify Inhibitors of Luciferase Translation or Activity in H4-C Neuroglioblastoma Cells. [Related pubchem assays: 1813 (Primary HTS), 1827 (Project Summary)]; assay type: functional
[9] = Luminescence Cell-Based Dose Response HTS to Identify Activators of Luciferase Translation or Activity in H4-C Neuroglioblastoma Cells. [Related pubchem assays: 1829 (Project Summary), 1814 (Primary HTS)]; assay type: functional
[10] = inhibitors of firefly luciferase expression or activity, dose response, H4 neuroglioma cells, luminescence (AID 1990); assay type: functional, cell-based
[11] = luciferase reporter signal reduction – luminescence, H4-C neuroglioblastoma cells, dose response (AID 2458); assay type: functional, cell-based;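 also: H4 neuroglioblastoma cells stably carrying a luciferase reporter gene fusion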
[12] = Luminescence Cell-Based Dose Retest to Confirm Activators of 5'UTR Stem-Loop Driven Alpha-Synuclein mRNA Translation in H4 Neuroglioblastoma Cells. [Related pubchem assays (depositor defined):AID1813, AID1829]; assay type: functional
[13] = Luminescence Cell-Based Dose Response HTS to Identify Activators of 5'UTR Stem-Loop Driven Prion Protein mRNA Translation in H4-C Neuroglioblastoma Cells. [Related pubchem assays: 1829 (Project Summary), 1814 (Primary HTS)]; assay type: functional
[14] = Luminescence Cell-Based Dose HTS Response to Identify Inhibitors of 5'UTR Stem-Loop Driven Prion Protein mRNA Translation in H4-C Neuroglioblastoma Cells. [Related pubchem assays (depositor defined):AID1814, AID1827]; assay type: functional
BJ [15] = assay: cytotoxicity toward BJ-TERT fibroblasts, dose response, cell-based, RAS-independent, luminescence (AID 1933); assay type: functional; details: Homo sapiens
cells [16] = assay type: functional, cell-based
[17] = Luminescence Cell-Based Dose Response HTS to Identify Inhibitors of 5'UTR Stem-Loop Driven Prion Protein mRNA Translation in H4 Neuroglioblastoma Cells. [Related pubchem assays: 1827 (Project Summary), 1813 (Primary HTS)]; assay type: functional
[18] = inhibitors of SNCA 5'UTR-driven reporter translation, confirmation, H4 neuroglioma cells, luminescence (AID 1988); assay type: functional, cell-based
BJ [19] = assay: cells; assay type: functional, cell-based; details: Homo sapiens
[20] = Luminescence Cell-Based Dose Confirmation HTS to Identify Inhibitors of 5'UTR Stem-Loop Driven Alpha-Synuclein mRNA Translation in H4 Neuroglioblastoma Cells. [Related pubchem assays: 1827 (Project Summary), 1813 (Primary HTS)]; assay type: functional
BJ [21] = assay: cytotoxicity toward BJ-TERT-LT-ST fibroblasts, dose response, cell-based, RAS-independent, luminescence (AID 1935); assay type: functional; details: Homo sapiens;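 also: BJ fibroblasts immortalized with TERT plus LT and ST oncogenes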
[22] = cytotoxicity toward DRD oncogenic fibroblasts, dose response, cell-based, non-viral oncogenic, luminescence (AID 1934); assay type: functional; details: Homo sapiens
[23] = inhibitors of SNCA 5'UTR-driven translation, confirmation, luminescence, H4 neuroglioblastoma cells, dose confirmation (AID 2454); assay type: functional, cell-based;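 also: H4 neuroglioblastoma cells carrying an alpha-synuclein 5'UTR luciferase reporter; potency for inhibition of the luciferase signal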
BJ [24] = assay: cytotoxicity toward Ras-transformed BJeLR fibroblasts, dose response, cell-based, alamar blue fluorescence, cherrypicked samples (AID 2631); assay type: functional; details: Homo sapiens;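 also: confirmatory dose-response assay in RAS-dependent BJ fibroblasts engineered with TERT, LT and ST, with cytotoxicity read by fluorescence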
[25] = HEK293 cell cytotoxicity, dose response, cytotoxicity control, dry powder samples (AID 720567); assay type: functional, cell-based
[26] = THP-1 cell cytotoxicity, dose response, cytotoxicity control for non-replicating M. tuberculosis project (AID 489025); assay type: functional
Protein RecA [27] = biological target: T4, Protein RecA (Mycobacterium tuberculosis, UniProt P9WHJ3); assay: GFP-RecA MOA-DTT Measured in Biochemical System Using Plate Reader - 2047-05_Inhibitor_Dose_DryPowder_Activity. [Related pubchem assays (depositor defined):AID2223]; parameters: species or system Mycobacterium tuberculosis H37Rv
T4 sequence (P9WHJ3 whole entry): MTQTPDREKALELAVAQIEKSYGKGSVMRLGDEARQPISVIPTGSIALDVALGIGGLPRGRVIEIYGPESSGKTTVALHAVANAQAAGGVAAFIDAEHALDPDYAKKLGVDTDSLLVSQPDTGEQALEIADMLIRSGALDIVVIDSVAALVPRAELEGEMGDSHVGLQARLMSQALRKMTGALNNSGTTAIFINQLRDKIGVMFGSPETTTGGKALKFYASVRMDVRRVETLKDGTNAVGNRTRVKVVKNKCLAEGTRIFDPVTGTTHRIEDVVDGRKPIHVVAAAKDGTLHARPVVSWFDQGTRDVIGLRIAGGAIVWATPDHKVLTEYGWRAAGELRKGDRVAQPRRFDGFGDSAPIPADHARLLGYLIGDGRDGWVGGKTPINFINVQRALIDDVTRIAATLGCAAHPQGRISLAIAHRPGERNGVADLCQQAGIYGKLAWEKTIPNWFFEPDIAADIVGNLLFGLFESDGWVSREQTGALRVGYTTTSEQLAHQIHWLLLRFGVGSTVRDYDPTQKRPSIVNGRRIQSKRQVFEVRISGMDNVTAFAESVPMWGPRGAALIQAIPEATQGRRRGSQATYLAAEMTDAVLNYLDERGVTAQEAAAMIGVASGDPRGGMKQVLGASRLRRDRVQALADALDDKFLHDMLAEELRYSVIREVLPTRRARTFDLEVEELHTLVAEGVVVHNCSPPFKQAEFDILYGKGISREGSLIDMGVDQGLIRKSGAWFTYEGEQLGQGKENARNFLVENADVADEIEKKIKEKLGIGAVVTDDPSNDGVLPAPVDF

[28] = Vero E6 cell cytotoxicity, dose response, cytotoxicity control for non-replicating M. tuberculosis project, secondary assay (AID 492998); assay type: functional, VeroE6; details: Vero C1008
Nonstructural protein 1 = Nonstructural protein 1 (Influenza A virus, UniProt Q194T2); assay type: functional, Influenza A virus (A/California/07/2009(H1N1))
Chain of Nonstructural protein 1 (Q194T2 whole entry): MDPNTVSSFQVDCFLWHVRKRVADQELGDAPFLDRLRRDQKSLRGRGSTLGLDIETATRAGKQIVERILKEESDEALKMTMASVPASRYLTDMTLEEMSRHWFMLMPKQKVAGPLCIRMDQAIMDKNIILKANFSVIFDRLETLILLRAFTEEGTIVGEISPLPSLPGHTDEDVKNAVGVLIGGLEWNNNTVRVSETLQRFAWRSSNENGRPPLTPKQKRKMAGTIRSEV

[29] = Intein inhibitors as potential Tuberculosis drugs, a cytotoxicity screen. [Related pubchem assays (depositor defined):AID2221, AID2223, AID434968, AID435010, AID449749, AID449750, AID489010]; assay type: functional
[30] = biological target: T5, Replicative DNA helicase DnaB (Mycobacterium tuberculosis, UniProt P9WMR3); assay: DnaB Intein secondary assay Measured in Biochemical System Using Plate Reader - 2047-04_Inhibitor_Dose_DryPowder_Activity. [Related pubchem assays (depositor defined):AID2223]
T5 sequence (P9WMR3 whole entry): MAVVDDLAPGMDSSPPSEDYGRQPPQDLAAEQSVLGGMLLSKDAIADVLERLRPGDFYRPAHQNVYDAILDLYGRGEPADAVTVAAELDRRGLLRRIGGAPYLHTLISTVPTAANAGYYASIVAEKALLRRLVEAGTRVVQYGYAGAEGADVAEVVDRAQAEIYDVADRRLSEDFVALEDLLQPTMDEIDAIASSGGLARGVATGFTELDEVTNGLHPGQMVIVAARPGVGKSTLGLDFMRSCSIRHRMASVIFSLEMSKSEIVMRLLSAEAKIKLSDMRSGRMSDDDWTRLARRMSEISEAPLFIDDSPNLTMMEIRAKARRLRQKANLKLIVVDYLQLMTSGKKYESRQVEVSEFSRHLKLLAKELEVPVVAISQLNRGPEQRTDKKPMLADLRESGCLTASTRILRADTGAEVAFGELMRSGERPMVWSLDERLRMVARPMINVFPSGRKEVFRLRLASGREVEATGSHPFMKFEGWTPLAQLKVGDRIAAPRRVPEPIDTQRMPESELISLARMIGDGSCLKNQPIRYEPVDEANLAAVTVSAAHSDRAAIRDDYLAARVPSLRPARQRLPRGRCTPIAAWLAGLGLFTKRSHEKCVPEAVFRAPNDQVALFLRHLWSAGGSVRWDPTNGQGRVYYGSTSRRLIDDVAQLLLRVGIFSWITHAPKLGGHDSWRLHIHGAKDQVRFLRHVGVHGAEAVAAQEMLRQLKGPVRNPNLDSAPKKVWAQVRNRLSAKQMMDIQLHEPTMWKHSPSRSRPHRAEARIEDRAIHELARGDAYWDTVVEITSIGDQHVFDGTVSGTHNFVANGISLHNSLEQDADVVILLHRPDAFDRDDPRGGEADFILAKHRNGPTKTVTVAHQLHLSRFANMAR

[31] = biological target: T6, Microphthalmia-associated transcription factor (Homo sapiens, UniProt O75030); assay: TRPM1 promoter luciferase signal decrease, dose response, MITF inhibitor project, cell-based, SK-MEL-5, cherry-picked, set 3 (AID 493073); assay type: functional
T6 sequence (O75030 whole entry): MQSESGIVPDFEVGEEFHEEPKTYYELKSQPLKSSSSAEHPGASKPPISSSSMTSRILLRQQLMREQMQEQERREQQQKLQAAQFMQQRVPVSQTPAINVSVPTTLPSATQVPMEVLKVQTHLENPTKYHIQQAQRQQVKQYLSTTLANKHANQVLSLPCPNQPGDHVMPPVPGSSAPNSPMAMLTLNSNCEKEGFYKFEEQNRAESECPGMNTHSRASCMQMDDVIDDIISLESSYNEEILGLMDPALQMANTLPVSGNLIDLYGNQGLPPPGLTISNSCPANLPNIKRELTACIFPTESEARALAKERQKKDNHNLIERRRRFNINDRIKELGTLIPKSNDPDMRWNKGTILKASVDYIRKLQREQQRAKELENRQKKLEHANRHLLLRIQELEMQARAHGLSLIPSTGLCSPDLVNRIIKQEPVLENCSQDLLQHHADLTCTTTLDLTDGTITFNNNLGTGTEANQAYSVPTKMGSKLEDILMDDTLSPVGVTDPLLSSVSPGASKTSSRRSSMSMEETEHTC

Protein RecA [32] = biological target: T4, Protein RecA; assay: RecA Intein Measured in Biochemical System Using Plate Reader - 2047-02_Inhibitor_Dose_DryPowder_Activity. [Related pubchem assays (depositor defined):AID2223]; parameters: species or system Mycobacterium tuberculosis H37Rv
cells [33] = assay type: functional
[34] = biological target: T5, Replicative DNA helicase DnaB; assay: DnaB intein splicing inhibitors, dose response, biochemical, cell-free fluorescence (AID 449749); assay type: functional
Protein RecA [35] = biological target: T4, Protein RecA; assay: Fluorescence Cell-Free Homogeneous Dose Retest to Identify Inhibitors of RecA-Intein Splicing Activity. [Related pubchem assays (depositor defined):AID2097, AID2223, AID489010, AID492950]; assay type: functional

T1 sequence (Q9HC97 whole entry): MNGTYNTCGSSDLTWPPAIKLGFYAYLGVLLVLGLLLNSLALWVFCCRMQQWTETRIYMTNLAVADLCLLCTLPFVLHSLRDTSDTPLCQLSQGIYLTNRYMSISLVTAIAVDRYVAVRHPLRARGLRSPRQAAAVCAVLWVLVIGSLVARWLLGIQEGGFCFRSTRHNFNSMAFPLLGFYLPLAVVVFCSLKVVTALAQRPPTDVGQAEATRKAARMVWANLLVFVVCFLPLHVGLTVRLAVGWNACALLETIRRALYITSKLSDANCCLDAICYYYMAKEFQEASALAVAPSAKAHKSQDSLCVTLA

In the case of COc1ccc(-c2cc(C(=O)Nc3ccc(S(=O)(=O)Nc4ncccn4)cc3)c3ccccc3n2)cc1, the EC50 [1] is reported as > 32 µM (inactive), the EC50 (Cannabinoid receptor 1 [2]) is reported as > 32 µM (inactive) and the IC50 [3] is reported as > 32 µM (inactive). The IC50 (Cannabinoid receptor 1 [4]) was 24.5 µM (inactive), the IC50 [5] was > 32 µM (inactive) and the IC50 (Cannabinoid receptor 2 [6]) was > 32 µM (inactive). For the same compound, the EC50 (Cannabinoid receptor 2 [7]) was > 32 µM (inactive).

With COc1cccc(N2CCN(C(=O)c3ccc(C[S+]([O-])c4ccc(C)cc4)o3)CC2)c1 (stereo unspecified) the EC50 [8] was 0.703 µM (active), the EC50 [9] was 0.703 µM (inconclusive) and the EC50 [10] was 5.76 µM (active). For the same compound, the EC50 [11] was 0.93 µM (active), the EC50 [12] was 36.4 µM (inconclusive) and the EC50 [13] was 0.186 µM (inconclusive). For the same compound, the EC50 [14] was 0.186 µM (active), the EC50 (BJ [15]) was 0.873 µM (active) and the EC50 (cells [16]) was 1.57 µM (active). The EC50 [17] was 12.6 µM (active), the EC50 [18] was < 0.1 µM (active) and the EC50 (BJ [19]) was 0.479 µM (inconclusive). For the same compound, the EC50 [20] was 36.4 µM (active), the EC50 (BJ [21]) was 0.651 µM (active) and the EC50 [22] was 0.637 µM (active). The EC50 [23] was 1.43 µM (active), the EC50 (BJ [24]) was < 0.104 µM (active) and the AC50 [25] was > 30 µM (inactive).

With Cc1ccccc1-n1ncc2c([N+](=O)[O-])cc([N+](=O)[O-])cc21 the CC50 [26] was > 40 µM (active), the AC50 (Protein RecA [27]) was 232 µM (active) and the CC50 [28] was > 20 µM (active). The IC50 (Nonstructural protein 1) was 31.1 µM (active), the CC50 [29] was 30.8 µM (active) and the AC50 [30] was 5.7 µM (active). The AC50 [31] was 8.7 µM (active), the AC50 (Protein RecA [32]) was 2.19 µM (active) and the IC50 (cells [33]) was 0.95 µM (active). The AC50 [34] was 3.15 µM (active) and the EC50 (Protein RecA [35]) was 0.911 µM (active).
